Source: patent publication US5820881A, “Microspheres of diamide-dicarboxylic acids” (Emisphere Technologies, Inc., priority 1995, dated 1998)
“Also recorded” adds a separate entry of the source. Where a name gives a salt, the structure may show the parent alone. Read-outs that look alike come from different tables or passages of the source.

Columns and labels:
Format in all cases: physicochemical
[1] = Concentration dependence of microsphere formation (turbidity, % transmittance at 600 nm); settings: for Concentration of amide above which a dense suspension (% T < 0.5) of microspheres is formed: 500 mM citric acid (pH 2.4)
Experimental: A stock solution containing the lithium salt of the diamide prepared according to the method of Example 4 was prepared by stepwise addition of exactly two equivalents of a standardized solution of LiOH (stored under argon to prevent precipitation of lithium carbonate). The final concentration of the dilithium salt of the diamine was 100 mM, and the pH was always between 7.0 and 8.0. The solution was filtered through a 0.2 μm membrane prior to use. An appropriate amount of the 100 mM stock solution was diluted with deionized water to 500 μL. Microsphere formation was then initiated by addition of an equal volume of 1M citric acid, so that the final concentration ranged from 0 to 50 mM dilithium diamide in 500 mM citric acid with the pH below 2.5. Turbidity was assessed over this range of concentrations by measuring % transmittance at 600 nm. […]
(§1) Each of the compounds of Examples 4-6 and 15 was evaluated by monitoring the change in the solution turbidity, while altering the pH at a fixed Phe amide concentration or by holding the pH constant and varying the concentration of the amide substrate. Each concentration dependence was determined in 500 mM citric acid from a plot of the solution transmittance (% T) vs. concentration. […] The influence of pH on solution turbidity was studied in solutions containing 50 mM in 500 mM lithium citrate buffers. The percent transmittance (% T) was <0.5% at pH 2.67 and >95% at pH 3.26. The pKas were determined by titration of each Phe amide substrate. As expected, the pKas of these Phe diamide diacids were all very similar.

[2] = Microsphere formation (Li2CO3 solution mixed with aqueous citric acid; microscopic examination); settings: for Microsphere formation / self-assembly: aqueous salt solution + citric acid; for Diameter of spheres: from 10 μm to submicrons, light microscopy
Experimental: The bis-amide dicarboxylic acid prepared according to the method of Example 4 was dissolved in 0.1 mL of aqueous Li2 CO3 (0.1M) to yield a clear solution of the lithium salt in deionized water. 50 μL of the 0.1M solution was mixed with 50 μL of 1M aqueous citric acid and shaken. A white suspension was generated.
The method of Example 17 was followed, substituting the bis-amide dicarboxylic acid prepared according to the method of Example 5. A white suspension was generated.
The method of Example 17 was followed, substituting the bis-amide dicarboxylic acid prepared according to the method of Example 6. A white suspension was generated.
The method of Example 17 was followed, substituting the bis-amide dicarboxylic acid prepared according to the method of Example 15. A white suspension was generated.

[3] = pKa determination by titration
Experimental: as §1

[4] = pH dependence of microsphere formation (turbidity, % transmittance at 600 nm); settings: for pH at which % T is > 95%: amide concentration 50 mM in 500 mM Li citrate
Experimental: 500 μL of 100 mM dilithium diamide solution prepared according to the method of Example 21 was mixed with an equal volume of one of a series of 1M lithium citrate buffers containing between 0 to 1 equivalent of lithium hydroxide so that the final measured pH of the mixture ranged from ca. 2.4 to 4.0. Turbidity was assessed over this pH range by measuring % transmittance at 600 nm.
The method of Example 25 was followed substituting the bis-amide dicarboxylic acid prepared according to the method of Example 5.
The method of Example 25 was followed substituting the bis-amide dicarboxylic acid prepared according to the method of Example 6.
The method of Example 25 was followed substituting the bis-amide dicarboxylic acid prepared according tot he method of Example 15.
as §1

[5] = SEM/TEM examination of microcapsules (tannic acid / OsO4 fixation)
Experimental: The sodium salt of the bis-amide dicarboxylic acid of Example 6 was prepared. A white suspension was prepared by combining 100 μL of 0.43M citric acid and 50 μL of a 0.1M aqueous solution of the sodium salt of the diamide. The aqueous suspension was deposited on polylysine-coated glass coverslips and fixed with 2% OsO4 for 4 hours. The sample was washed with distilled water, air dried and sputter coated with gold. SEM photographs are illustrated in FIGS. 3a and 3b.
A white suspension was also prepared by adding a solution containing 50 μL of a 0.86M citric acid and 50 μL of 3 wt. % tannic acid to 50 μL of a 100 mM aqueous solution of the sodium salt of the diamide. The pH was lowered from 7.7 to 2.4. The aqueous solution was deposited on a Nucleopore filter and fixed with 4% OsO4 for 4 hours. The sample was washed with distilled water and 95% EtOH and was air dried. The sample was dispersed in 100% LR white resin and polymerized in an oven at 60° C. TEM photographs are illustrated in FIG. 4.
Estimates of the microcapsule shell thickness (150 nm) would require approximately 100 molecules of the diamide of Example 6 oriented end-to-end to traverse the microcapsule shell. However, a stacking of the bis amides seems more likely. A stacked array would allow for a greater number of assembled tetrapeptides to traverse the capsule shell. […] However, some tannic acid may be intercalated in the microsphere wall.

SMILES	Concentration of amide above which a dense suspension (% T < 0.5) of microspheres is formed [1]	Microsphere formation / self-assembly [2]	Diameter of spheres [2]	pKa ([3]; read-out: pKa1)	pKa ([3]; read-out: pKa2)	pH at which % T is > 95% [4]	further results
O=C(CC(=O)N[C@@H](Cc1ccccc1)C(=O)O)N[C@@H](Cc1ccccc1)C(=O)O [Example 4, bis(Nα-amido-L-phenylalanine) malonate]	30000 µM	formation of tiny spheres; also recorded: generated microcapsules	≤ 10 μm	3.67	4.7	3.26	% transmittance, clear solution ([1]; 500 mM citric acid, before transition at 30 mM, 600 nm): > 95 % T; % transmittance, dense suspension of microcapsules ([1]; 500 mM citric acid, diamide above 30 mM, 600 nm): 0.2 % T; Percent transmittance (% T) at pH 2.67 ([4]; 50 mM in 500 mM lithium citrate buffers, pH 2.67): < 0.5%; Percent transmittance (% T) at pH 3.26 ([4]; 50 mM in 500 mM lithium citrate buffers, pH 3.26): > 95%; Estimated number of diamide molecules per one anionic species sufficient to abort assembly ([4]; estimated from pKa and pH measurements): ~30 molecules
CC(C)(C(=O)N[C@@H](Cc1ccccc1)C(=O)O)C(=O)N[C@@H](Cc1ccccc1)C(=O)O [Example 5, bis(Nα-amido-L-phenylalanine) 1,1-dimethyl malonate]	25000 µM	formation of tiny spheres	≤ 10 μm	3.55	4.62	3.26	–
O=C(O)[C@H](Cc1ccccc1)NC(=O)C1(C(=O)N[C@@H](Cc2ccccc2)C(=O)O)CC1 [Example 6, bis(Nα-amido-L-phenylalanine) 1,1 -cyclopropane dicarboxylate]	13000 µM	formation of tiny spheres	≤ 10 μm	3.53	4.5	3.26	Incorporation of tannic acid into the microsphere shell [5]: Little tannic acid was incorporated into the microsphere shell; Molecules oriented end-to-end required to traverse the microcapsule shell ([5]; shell thickness 150 nm): approximately 100 molecules; Estimated microcapsule shell thickness ([5]; sodium salt, citric acid + tannic acid, TEM): ~150 nm
O=C(N[C@@H](Cc1ccccc1)C(=O)O)C(=O)N[C@@H](Cc1ccccc1)C(=O)O [Example 8, bis(Nα-amido-L-phenylalanine) oxalate]	–	neither the oxalic derivative of Example 8 nor the succinic analogue of Example 12 did; also recorded: did not form microspheres	–	–	–	–	–
O=C(O)CCC(=O)N[C@@H](Cc1ccccc1)C(=O)O [Example 11, (Nα-amido-L-phenylalanine) monosuccinate]	–	did not form microspheres	–	–	–	–	–
O=C(CCC(=O)N[C@@H](Cc1ccccc1)C(=O)O)N[C@@H](Cc1ccccc1)C(=O)O [Example 12, bis(Nα-amido-L-phenylalanine) succinate]	–	neither the oxalic derivative of Example 8 nor the succinic analogue of Example 12 did; also recorded: does not self assemble; also recorded: did not form microspheres	–	–	–	–	–
O=C(/C=C\C(=O)N[C@@H](Cc1ccccc1)C(=O)O)N[C@@H](Cc1ccccc1)C(=O)O [Example 15, bis(Nα-amido-L-phenylalanine) maleate]	23000 µM	formation of tiny spheres; also recorded: generated microcapsules	≤ 10 μm	3.7	4.87	3.26	–
O=C(/C=C/C(=O)N[C@@H](Cc1ccccc1)C(=O)O)N[C@@H](Cc1ccccc1)C(=O)O [Example 16, bis(Nα-amido-L-phenylalanine) fumarate]	–	did not form microspheres	–	–	–	–	–
